Values after ≈ are worked out from the molar mass of the structure shown. “Also recorded” adds a separate entry of the source. Read-outs that look alike come from different tables or passages of the source.
Tests used:
hP2Y14R = biological target: T1, hP2Y14R (Homo sapiens, UniProt Q15391); assay type: binding; settings: hP2Y14R, IC50 (nM), Table 2; hP2Y14R-CHO cells; values from Tables 1A and 1B
T1 sequence (Q15391 1-338): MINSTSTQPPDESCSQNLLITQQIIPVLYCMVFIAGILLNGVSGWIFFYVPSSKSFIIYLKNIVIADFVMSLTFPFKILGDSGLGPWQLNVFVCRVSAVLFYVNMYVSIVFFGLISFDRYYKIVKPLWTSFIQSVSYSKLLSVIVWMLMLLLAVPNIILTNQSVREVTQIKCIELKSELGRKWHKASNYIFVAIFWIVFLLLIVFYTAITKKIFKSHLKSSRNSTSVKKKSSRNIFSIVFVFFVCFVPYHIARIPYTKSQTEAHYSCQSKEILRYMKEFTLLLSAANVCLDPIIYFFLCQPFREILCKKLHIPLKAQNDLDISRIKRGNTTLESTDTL

[1] = Relative lipophilicity from RP-HPLC retention time; assay type: physicochemical; settings: RP-HPLC retention time (C18), 10 to 100% acetonitrile in 10 mM triethylammonium acetate
mP2Y14R = biological target: T2, mP2Y14R (Mus musculus, UniProt Q9ESG6); settings: species comparison
T2 sequence (Q9ESG6 1-338): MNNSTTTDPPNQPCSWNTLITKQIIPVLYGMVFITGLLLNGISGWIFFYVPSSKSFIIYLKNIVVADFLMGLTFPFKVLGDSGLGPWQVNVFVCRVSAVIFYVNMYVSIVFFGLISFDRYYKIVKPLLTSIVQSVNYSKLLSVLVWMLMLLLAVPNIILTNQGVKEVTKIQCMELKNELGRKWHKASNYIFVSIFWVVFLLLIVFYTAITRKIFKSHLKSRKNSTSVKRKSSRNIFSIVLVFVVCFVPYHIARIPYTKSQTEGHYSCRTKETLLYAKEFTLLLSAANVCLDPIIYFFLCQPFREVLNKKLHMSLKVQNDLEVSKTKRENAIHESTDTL

[2] = test system: CCI of the sciatic nerve in adult male ICR mice; test: Chronic constriction injury; settings: mouse, 10 μmol/kg, ip
[3] = Aqueous solubility, pION method
[4] = Plasma protein binding in three species
[5] = Observed solubility in water, DMSO or aqueous DMSO; settings: water
ASP/OVA-sensitized mice = test: Ovalbumin/Aspergillus protease mouse model of allergic asthma, BALF cell counts; settings: 10 mg/kg ip 30 min prior to allergen challenge, BALF 2 days post-challenge
[6] = ref Yu et al.[23]; cited from earlier work
[7] = ref Yu et al.[23]; cited from earlier work; remark: listed apart in the source
[8] = human (h) microsomes; ref Yu et al.[23]; cited from earlier work
[9] = human, rat, and mouse plasma, ref Yu et al.[23]; cited from earlier work
CYP3A4 [10] = biological target: T3, CYP3A4 (Homo sapiens, UniProt P08684); settings: read-out: CYP3A4 (IC50); ref Yu et al.[23]; cited from earlier work
T3 sequence (P08684 whole entry): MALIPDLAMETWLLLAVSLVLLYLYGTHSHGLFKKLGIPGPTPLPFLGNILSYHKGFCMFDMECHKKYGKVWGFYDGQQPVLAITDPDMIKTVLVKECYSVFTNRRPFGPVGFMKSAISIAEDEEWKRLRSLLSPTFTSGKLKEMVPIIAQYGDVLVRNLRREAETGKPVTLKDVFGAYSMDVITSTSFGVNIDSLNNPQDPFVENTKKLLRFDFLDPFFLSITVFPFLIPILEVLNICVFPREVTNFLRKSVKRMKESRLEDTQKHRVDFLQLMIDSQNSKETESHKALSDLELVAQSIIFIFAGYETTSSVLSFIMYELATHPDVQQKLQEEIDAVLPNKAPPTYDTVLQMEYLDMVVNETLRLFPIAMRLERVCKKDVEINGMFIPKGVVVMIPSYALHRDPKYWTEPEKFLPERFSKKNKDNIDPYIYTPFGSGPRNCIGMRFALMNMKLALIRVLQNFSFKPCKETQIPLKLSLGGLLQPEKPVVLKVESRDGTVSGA

CYP2C9 = CYP2C9 (Homo sapiens, UniProt P11712); settings: read-out: CYP2C9 (IC50); ref Yu et al.[23]; cited from earlier work
Chain of CYP2C9 (P11712 whole entry): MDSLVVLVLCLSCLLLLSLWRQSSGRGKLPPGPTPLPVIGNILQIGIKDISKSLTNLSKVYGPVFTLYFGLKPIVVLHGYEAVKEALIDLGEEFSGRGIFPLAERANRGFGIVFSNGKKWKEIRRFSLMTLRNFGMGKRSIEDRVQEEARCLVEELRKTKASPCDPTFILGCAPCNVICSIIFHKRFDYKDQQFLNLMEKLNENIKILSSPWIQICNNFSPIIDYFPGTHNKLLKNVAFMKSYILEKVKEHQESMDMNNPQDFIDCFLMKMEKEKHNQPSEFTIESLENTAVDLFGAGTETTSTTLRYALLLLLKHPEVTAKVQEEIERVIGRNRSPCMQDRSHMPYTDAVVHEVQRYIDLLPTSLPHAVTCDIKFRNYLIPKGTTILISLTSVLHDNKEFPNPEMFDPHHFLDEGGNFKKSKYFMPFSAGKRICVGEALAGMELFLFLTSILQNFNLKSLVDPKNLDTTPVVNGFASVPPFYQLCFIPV

CYP1A2 = biological target: T4, CYP1A2 (Homo sapiens, UniProt P05177); test: CYP1A2 inhibition
T4 sequence (P05177 1-516): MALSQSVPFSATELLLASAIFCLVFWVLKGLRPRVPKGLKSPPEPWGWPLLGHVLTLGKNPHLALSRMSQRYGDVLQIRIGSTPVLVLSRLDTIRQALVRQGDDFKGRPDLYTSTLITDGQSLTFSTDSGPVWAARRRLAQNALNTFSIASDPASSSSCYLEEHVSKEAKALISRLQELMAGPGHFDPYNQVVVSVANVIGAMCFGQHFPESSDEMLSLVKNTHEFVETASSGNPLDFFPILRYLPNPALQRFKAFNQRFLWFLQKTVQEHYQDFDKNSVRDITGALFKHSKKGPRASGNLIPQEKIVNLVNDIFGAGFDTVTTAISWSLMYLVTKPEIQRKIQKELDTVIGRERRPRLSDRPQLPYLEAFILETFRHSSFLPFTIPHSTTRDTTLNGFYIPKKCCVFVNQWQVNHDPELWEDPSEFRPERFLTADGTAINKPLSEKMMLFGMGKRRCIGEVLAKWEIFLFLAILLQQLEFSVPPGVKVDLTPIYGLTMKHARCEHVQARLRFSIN

CYP3A4 [11] = biological target: T3, CYP3A4; test: CYP3A4 inhibition
[12] = Pharmacokinetics in the rat, ip and iv

## NCCOCCOCCOCCOCCOCCOCCC(=O)N1CCC(c2ccc(-c3cc(C(=O)O)cc4cc(-c5ccc(C(F)(F)F)cc5)ccc34)cc2)CC1 [Compound 12, 4-(4-(1-(1-Amino-3,6,9,12,15,18-hexaoxahenicosan-21-oyl)piperidin-4-yl)phenyl)-7-(4-(trifluoromethyl)phenyl)-2-naphthoic Acid]
hP2Y14R
  IC50: 963 ± 417 nM
[1]
  lipophilicity (Δk), relative to 1: 0.71 ± 0.03
mP2Y14R
  fold greater affinity at the mouse homologue than at the hP2Y14R: 2 fold
[2]
  effect on the hind paw response contralateral to the injury: No effect
  time of peak protection post-injection: 1 to 2 h
[2]; 7 days post-CCI, ipsilateral hind paw
  reversal of CCI-induced mechano-allodynia: reduced chronic pain; also recorded: fully efficacious
[3]; pH 4
  solubility: 8.02 ± 1.01 µg/mL (≈ 9.89 µM)
[3]; pH 7.4
  solubility: 7.16 ± 1.16 µg/mL (≈ 8.83 µM)
[3]; pH 7.4, relative to 1
  fold greater aqueous solubility than 1: ~20 fold
[4]
  plasma protein binding: high
[5]
  solubility: ≥ 150 mM
ASP/OVA-sensitized mice
  effect on eosinophilic airway inflammation: inactive

## NC(=O)c1ccc(-c2cc(C(=O)O)cc(-n3cc(-c4ccc(C(F)(F)F)cc4)nn3)c2)cc1 [Compound 22]
[6]
  simulated intestinal fluid (% remaining at 120 min): 100%
[7]
  simulated gastric fluid (% remaining at 120 min): 100%
[8]
  microsomal stability (t1/2, min): 145 min
[9]
  plasma stability (three species) (% remaining at 120 min): 94–100%
CYP3A4 [10]
  IC50: > 30 µM
CYP2C9
  IC50: > 30 µM

## O=C(O)c1cc(-c2ccc(C34CCN(CC3)CC4)cc2)cc(-n2cc(-c3ccc(C(F)(F)F)cc3)nn2)c1 [Compound 18, 4′-(Quinuclidin-4-yl)-5-(4-(4-(trifluoromethyl)phenyl)-1H-1,2,3-triazol-1-yl)-[1,1′-biphenyl]-3-carboxylic Acid]
CYP1A2
  IC50: 14.1 µM
CYP3A4 [11]
  IC50: 9.94 µM
[3]; pH 4, aqueous solubility (pH 4.0, μg/mL), Table 5, pH 4.0, mean ± SD, pION method
  solubility: 14.4 ± 0.3 µg/mL (≈ 27.8 µM)
[3]; pH 7.4, aqueous solubility (pH 7.4, μg/mL), Table 5, pH 7.4, mean ± SD, pION method
  solubility: < 0.1 µg/mL
[12]
  time at which maximal plasma concentration was reached: 3 to 4 h
[12]; highest dose (10 mg/kg), 12 h
  plasma concentration at the 12 h time point: 200 to 400 ng/kg
[4]
  plasma protein binding: high
